Patent US12448372B2, “Class of triaromatic compounds targeting bifunctional phosphorylation site of STAT3 and applications thereof” (SHANGHAI YUYAO BIOTECH LTD., priority 2019, dated 2025)
Entries after “also recorded” stand apart in the source; their conditions may differ. Read-outs that look alike come from different tables or passages of the source.

Key:
HCC827 = assay: Cell proliferation by MTS method, HCC827; format: cell-based; settings: Homo sapiens
Outline: (§1)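 Seed 1-20×10^3 cells/well; adhere; compound dilutions vs medium control, 24-96 h. MTS, dark, 37° C.; A490. n=3; IC50.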

HCCC9810 = assay: Cell proliferation by MTS method, HCCC9810; format: cell-based; settings: Liver Cancer
From the text: (§2) (2) Detection of Cell Proliferation by MTS Method
(§3) The MTS assay is a method for indirectly determining the number of living cells via colourimetric method. MTS is a newly synthesised tetrazole compound that reflects cell viability, which can be reduced by succinate dehydrogenase in the mitochondria of living cells to an orange-coloured formazan with an absorbance of the reduced product measured at 490 nm being in proportion to the number of living cells, thus reflecting the cell viability. This assay can be used to evaluate the effect of the compound on the proliferation of pancreatic cancer cells, thereby determining the inhibitory effect of the compound on the proliferation of pancreatic cancer cells and to calculate the IC^50. Each cells were inoculated uniformly into a 96-well plate at a density of 1-20×10^3 cells/well, 100 μL per well, and placed in a constant temperature incubator until the cells adhered to the wall. […] Under light-proof conditions, MTS was added and well mixed, the mixture was placed in a constant temperature incubator at 37° C., and the light absorption value were measured using an enzyme marker at 490 nm and the experiment was repeated for three times, IC50 was calculated with GraphPad5 Prism software.

H522 = assay: Cell proliferation by MTS method, H522; format: cell-based; settings: Homo sapiens, NCI-H522, Lung Cancer
From the text: as §2, §3

H460 = assay: Cell proliferation by MTS method, H460; format: cell-based; settings: Homo sapiens, NCI-H460, Lung Cancer
From the text: as §2, §3

MKN45 = assay: Cell proliferation by MTS method, MKN45; format: cell-based; settings: Homo sapiens, MKN-45
Outline: as §1

BXPC3 = assay: Cell proliferation by MTS method, BXPC3; format: cell-based; settings: Homo sapiens, BXPC-3, Pancreatic Cancer
From the text: as §2, §3

Capan-2 = assay: Cell proliferation by MTS method, Capan-2; format: cell-based; settings: Homo sapiens
Outline: as §1

[1] = tested on: Human pancreatic cancer cells (ASPC-1); assay: In situ growth metastasis model of pancreatic cancer, ASPC-1 in nude mice; format: in vivo; settings: in situ growth metastasis model (ASPC-1), nude mice, 5, 10, 20 mg/kg by gavage once a day, FIG. 4D
Protocol: (2) In situ growth metastasis model of pancreatic cancer. Human pancreatic cancer cells (ASPC-1) were used to bear tumors in the pancreas of age-appropriate nude mice, 6 or more mice in each group. One week after injection of tumour cells, all mice were randomly divided to the control group, WB737-5 mg/kg low dose group, 10 mg/kg medium dose group, 20 mg/kg high dose group and positive compound group. Different doses of WB737 or the positive compound were administered by gavage, and mice of control group were administered the same dose of solvent orally […], dosing once a day. During the experiment, the time and number of mice died due to pancreatic cancer metastasis were counted, and the results of the experiment were counted and survival curves were plotted.

[2] = Acute toxicological experiments, survival of normal mice; settings: dose of 80 mg/kg, FIG. 5E
[3] = tested on: a variety of tumour cells; assay: Cell proliferation by MTS method, summary over a variety of tumour cells; format: cell-based; settings: summary over different types of cancer cells; read-out: half effective proliferation inhibition concentration (IC50) against a variety of tumour cells
From the text: as §2, §3

[4] = tested on: mouse pancreatic cancer cells Pan02-Luci; assay: Pancreatic cancer liver metastasis model, Pan02-Luci in C57BL/6 mice; format: in vivo
From the text: (1) Animal Experiment on Pancreatic Cancer Liver Metastasis
Pancreatic cancer is a malignant tumor of the gastrointestinal tract, with rapidly progressing condition, high degree of progression, and very limited clinical treatments, and metastasis is very likely to occur in the terminal stage, among which liver metastasis is the most common, and the occurrence of liver metastasis is also an important manifestation of the seriousness of the disease. In the present invention, by injecting pancreatic cancer cells into the spleen, the tumour cells will directed metastasize to the liver, thereby simulating the occurrence and metastasis process of pancreatic cancer liver metastasis. […] Fluorescence detection of mice was performed using the Small Animal In vivo Imaging Instrument (IVIS), according to the obtained fluorescence values, the mice were divided into control group, WB737 5 mg/kg/d low dose group, 10 mg/kg/d medium dose group and 20 mg/kg/d high dose group, and IACS-010759-10 mg/kg positive compound group, and the mean fluorescence values of each group were ensured to be consistent. […] Metastasiss were recorded using small animal in vivo imaging instrument (IVIS) during the experiment, and body weight of the mice was measured every 3-4 days. […]

BGC823 = assay: Cell proliferation by MTS method, BGC823; format: cell-based; settings: Homo sapiens, BGC-823, gastric Cancer
From the text: as §2, §3

[5] = tested on: human pancreatic cancer cells MIAPACA-2; assay: Subcutaneous tumor-bearing experiment in nude mice, MIAPACA-2
Protocol: (1) Subcutaneous Tumor-Bearing Experiment in Nude Mice
Subcutaneous tumor-bearing experiment, i. e. tumour cells were injected subcutaneously into nude mice, and the tumour cells absorbed nutrients from the mice and rapidly proliferated to form tumours.
Tumour volume and mouse weight were measured every four days, and tumour volume was calculated according to the formula of volume=length×width^2×0.52. After 3 weeks post-administration, mice were sacrificed and subcutaneous tumours were peeled off, weighed and photographed.

A549 = assay: Cell proliferation by MTS method, A549; format: cell-based; settings: Homo sapiens, Lung Cancer
From the text: as §2, §3

Huh7 = assay: Cell proliferation by MTS method, Huh7; format: cell-based; settings: Homo sapiens, Huh-7
Outline: as §1

HT29 = assay: Cell proliferation by MTS method, HT29; format: cell-based; settings: Homo sapiens, HT-29, Colon Cancer
From the text: as §2, §3

CFPAC-1 = assay: Cell proliferation by MTS method, CFPAC-1; format: cell-based; settings: Homo sapiens, Pancreatic Cancer
From the text: as §2, §3

For `Cn1c(C(=O)N2CCN(Cc3ccc(OCC(F)(F)F)cc3)CC2)cc2ccc(Oc3cnc(-c4nc(-c5ccc(C(F)(F)F)cc5)no4)cn3)cc21` [Example 6, (6-((5-(3-(4-(trifluoromethyl)phenyl)-1,2,4-oxadiazol-5-yl)pyrazin-2-yl)oxy)1-methyl-1H-indol-2-yl)(4-(4-(2,2,2-trifluoroethoxy)benzyl)piperazin-1-yl)methanone], the IC50 (HCC827; Lung Cancer, HCC827, read-out: IC50) was 0.5 nM, the IC50 (HCC827; Table 1, HCC827, read-out: Tumour cell proliferative activity/IC50(nM) Lung Cancer HCC827) was less than 10 nM and the IC50 (HCCC9810) was 73.3 nM. It also gave an IC50 (H522) of 12 nM, an IC50 (H460) of 4.6 nM and an IC50 (MKN45; Table 1, MKN45, read-out: Tumour cell proliferative activity/IC50(nM) gastric Cancer MKN45) of less than 10 nM. The IC50 (MKN45; gastric Cancer, MKN45, read-out: IC50) was 1.6 nM, the IC50 (BXPC3) was 7.6 nM and the IC50 (Capan-2; Pancreatic Cancer, Capan-2, read-out: IC50) was 9.4 nM. For the same compound, the IC50 (Capan-2; Table 1, Capan-2, read-out: Tumour cell proliferative activity/IC50(nM) Pancreatic Cancer Capan-2) was less than 10 nM, the survival of mice [1] was “significantly prolongs the survival of mice” and the “mortality of normal mice” value [2] was “no mice died”. For the same compound, the IC50 [3] was 0.5 to 32 nM, the “liver metastasis of tumours” value ([4]; Pan02-Luci injected into spleen, C57BL/6 mice, 5, 10, 20 mg/kg/d by gavage, FIG. 4A/4B) was “dose-dependently inhibits liver metastasis of tumours” and the survival of mice ([4]; pancreatic tumour liver metastasis model (Pan02), 5, 10, 20 mg/kg by gavage once a day, FIG. 4C) was “significantly prolongs the survival of mice”. For the same compound, the IC50 (BGC823) was 6.1 ± 0.9 nM, the “effect on the body weight of mice” value ([5]; MIAPACA-2 subcutaneous model, gavage, WB737 5-20 mg/kg, IACS-010759 10 mg/kg, FIG. 3D/5D) was “no significant effect on the body weight of mice; also recorded: good tolerability” and the “tumor growth (tumor volume and tumor weight)” value ([5]; MIAPACA-2 subcutaneous, BALB/c-nude mice, 5, 10, 20 mg/kg by gavage, 3 weeks, FIG. 3) was “significantly inhibits the growth of pancreatic tumour”. The IC50 (A549) was 11.9 nM, the IC50 (Huh7; Liver Cancer, Huh7, read-out: IC50) was 8.6 nM and the IC50 (Huh7; Table 1, Huh7, read-out: Tumour cell proliferative activity/IC50(nM) Liver Cancer Huh7) was less than 10 nM. For the same compound, the IC50 (HT29) was 31.6 nM and the IC50 (CFPAC-1) was 3.1 nM.
